According to US9951024B2, “Small-molecule inhibitors targeting G-protein-coupled Rho guanine nucleotide exchange factors” (Children's Hospital Medical Center, priority 2013, dated 2018):

Key:
RhoA-LARG interaction = biological target: T1, RhoA-LARG interaction (Homo sapiens, UniProt Q9NZN5); assay: In vitro complex formation assay, LARG binding to RhoA; conditions: for inhibition at 100 µM: read-out: Relative binding inhibition, %
T1 construct: human LARG (residues 765-1,138); made in house; host or cells: E. coli BL21 (DE3) (LARG), E. coli DH5α (GST-RhoA)
T1 sequence (Q9NZN5 765-1138 limits assumed): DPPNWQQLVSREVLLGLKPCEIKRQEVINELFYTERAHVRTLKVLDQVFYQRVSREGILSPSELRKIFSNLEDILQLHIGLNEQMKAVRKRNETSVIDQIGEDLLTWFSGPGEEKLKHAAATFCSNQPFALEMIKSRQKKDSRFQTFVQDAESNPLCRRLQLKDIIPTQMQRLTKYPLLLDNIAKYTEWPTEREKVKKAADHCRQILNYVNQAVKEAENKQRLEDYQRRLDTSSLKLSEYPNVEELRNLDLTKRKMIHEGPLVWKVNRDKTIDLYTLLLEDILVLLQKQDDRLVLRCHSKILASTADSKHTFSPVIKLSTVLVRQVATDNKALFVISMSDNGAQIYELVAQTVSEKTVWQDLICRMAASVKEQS
Description: About 1 μg of (His)6-tagged LARG DH-PH was incubated with 1 μg of EDTA-treated GSTRhoA or Cdc42 or GST alone in a binding buffer [20 mM Tris.HCl (pH 7.6), 100 mM NaCl, 1% BSA, 1% Triton X-100, 1 mM MgCl2] containing 15 μL of suspended glutathione-agarose beads. Y16 or other chemicals were added in the incubation buffer at the indicated concentrations. After an incubation at 4° C. for 1 h under constant agitation, the glutathione beads were washed twice with the binding buffer. The amount of (His)6-tagged protein coprecipitated with GST-fusion bound beads was detected by anti-His Western blotting. Similarly, cell lysates containing myc-Tiam1, (His)6-Cdc42, (His)6-TrioN, or (His)6-RhoA were mixed with purified GST-Rac1, GST-Cdc42, GST-mDia, GST-PKN, GSTROCKII, GST-p190GAP, or GST alone, and pairwise association was assessed in the presence or absence of indicated amount of Y16 and/or Rhosin.
The information in FIG. 4 was obtained by the following procedures. (A) Dose-dependent specific inhibition of LARG binding to RhoA by Y16, G04, or G04+Y16 combination at varying concentrations. (B) NIH 3T3 cells were treated with Y16, G04, or G04+Y16 combination at the indicated concentrations for 24 h in serum-free media. Cells were subsequently stimulated with 10% calf serum for 15 min and were subjected to GST-Rhotekin effector domain pull-down assays, and the activities of RhoA were examined. Relative amounts of GTP-bound form of the GTPases were quantified by densitometry measurements and normalized to those of the unstimulated cells. (C) NIH 3T3 cells were treated with Y16, G04, or G04+Y16 combination at the indicated concentrations for 24 h in serum-free media. Cells were subsequently stimulated with 10% calf serum for 15 min and were subjected to GST-Rhotekin and GST-PAK1 effector domain pull-down assays, and the activities of RhoA, Cdc42, and Rac1 were examined. Relative amounts of GTP-bound form of the GTPases were quantified by densitometry measurements and normalized to those of the nontreated cells. (D) NIH 3T3 cells were treated with Y16, G04, or G04+Y16 combination of the indicated concentrations in serum-free DMEM medium prior to stimulation with LPA (20 ng/mL) for 10 min. The cells were stained with rhodamine-phalloidin to reveal F-actin structures.
The inhibitory effects of the analogs were tested in a complex formation assay. (His)6-tagged LARG PH-DH (1 μg) was incubated with GST alone or GST-RhoA conjugated with glutathione agarose beads in the presence or absence of 100 μM indicated compounds. After an incubation at 4° C. for 1 h, the beads-associated (His)6-LARG PH-DH was detected by anti-His Western blotting. The relative inhibition of each analog was normalized to the inhibitory effect of Y16 of the same concentration.

RhoA = RhoA (Homo sapiens, UniProt P61586); conditions: reference 26; cited from earlier work
Chain of RhoA (P61586 whole entry): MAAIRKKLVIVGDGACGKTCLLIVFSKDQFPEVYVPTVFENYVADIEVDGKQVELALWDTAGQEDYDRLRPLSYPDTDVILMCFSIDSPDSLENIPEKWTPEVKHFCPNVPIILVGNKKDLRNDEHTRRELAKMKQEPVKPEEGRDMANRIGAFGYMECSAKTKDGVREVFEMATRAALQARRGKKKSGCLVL

RhoA-GTP [1] = assay: Endogenous Rho GTPase activity assay, RhoA-GTP in NIH 3T3 cells; assay type: cell-based; conditions: Mus musculus, NIH3T3, serum stimulated, acting alone at 30 μM, read-out: inhibition of RhoA-GTP content
Description: The information in FIG. 3 was obtained by the following procedures. (A and B) NIH 3T3 cells were treated with Y16 at the indicated concentrations for 24 h in serum-free media. Cells were subsequently stimulated with 10% calf serum for 15 min and were subjected to GST-Rhotekin or GST-PAK1 effector domain pull-down assays, and the activities of RhoA, Cdc42, and Rac1 were examined. Relative amounts of GTP-bound form of the GTPases were quantified by densitometry measurements and normalized to those of the unstimulated cells. […]
NIH 3T3 cells, MCF7 cells, or HME cells were grown in log phase in a 10-cm dish or a six-well dish, and were starved in serum-free medium in the presence or absence of Y16 at indicated concentrations for 24 h and were subsequently stimulated with 10% calf serum or FBS for 15 min. […] Lysates were clarified, the protein concentrations were normalized, and the GTP-bound RhoA, Rac1, or Cdc42 in the lysates were measured by respective anti-RhoA, Rac1, and Cdc42 Western blotting of the effector domain pull downs.
The information in FIG. 4 was obtained by the following procedures. […] Relative amounts of GTP-bound form of the GTPases were quantified by densitometry measurements and normalized to those of the unstimulated cells. […] Relative amounts of GTP-bound form of the GTPases were quantified by densitometry measurements and normalized to those of the nontreated cells. […]

RhoA-GTP [2] = assay: RhoA activity in MCF7-derived mammospheres; assay type: cell-based; conditions: alone at 10 μM
Description: The information in FIG. 5 was obtained by the following procedures. (A) Y16, G04, or G04+Y16 combination inhibits MCF7 breast cell growth. MCF7 cells were plated at 1.5×10^4/24 well in the presence of Y16, G04, or G04+Y16 combination. Cell numbers were determined at the indicated times. (B) MCF7 cells were subjected migration assays in the presence of Y16, G04, or G04+Y16 combination. (C) The invasive activities were assayed in a Matrigel-coated transwell. (D) Y16, G04, or G04+Y16 combination inhibits RhoA and its downstream signaling activities in MCF7-derived mammospheres. (Upper) MCF7-derived mammospheres were treated with Y16, G04, or G04+Y16 combination at the indicated concentrations. Spheres were collected, and the RhoA activity was examined. Relative amounts of GTP-bound form of RhoA were quantified by densitometry measurements and normalized to those of the untreated cells. (Lower) Western blots are of p-MLC of MCF7-derived mammospheres. Y16, G04, or G04+Y16 combination inhibits MCF-7 cell-derived mammosphere formation. (E) MCF-7 cells were treated with Y16, G04, or G04+Y16 combination at the indicated concentrations for 24 h in serum-free media. MCF7 cells were dissociated to single cells with trypsin and cultured for 10 d at the density of 2×10^4/mL in suspension in the media containing G04 or Y16 at the indicated concentration. Photographs were taken after a 10-d culture. […]

[3] = 100 μM compound, normalized to the inhibitory effect of Y16 of the same concentration

Row | Structure (SMILES) | inhibition at 100 µM (RhoA-LARG interaction; [3]) [%] | further results
1 | COc1cc(/C=C2/C(=O)NN(c3ccccc3)C2=O)ccc1O [Compound 2] | 13 | –
2 | O=C1/C(=C\c2ccccc2OCc2ccccc2)CNN1c1ccc(Br)cc1 [Compound 5] | 7.34 | –
3 | O=C1NN(c2ccccc2)C(=O)/C1=C/c1ccc(OCc2ccccc2)cc1 [Compound 1] | 27.1 | Relative binding inhibition, % (RhoA-LARG interaction; 100 μM compound, normalized to the inhibitory effect of Y16 of the same concentration, 100 µM): 27.12%
4 | O=C1NN(c2ccccc2)C(=O)/C1=C\C1=NCc2ccccc21 [Compound 3] | 6.75 | –
5 | COc1cc(/C=C2/C(=O)NN(c3ccccc3)C2=O)cc(Br)c1OCCOc1ccc(C)cc1 [Compound 4] | 13.8 | –
6 | N[C@H](Cc1c[nH]c2ccccc12)C(=O)N/N=C/c1ccc2nccnc2c1 [Compound G04, (2R)-2-amino-3-(1Hindol-3-yl)-N′-[(1E)-quinoxalin-6-ylmethylidene]propanehydrazide] | – | binding affinity to RhoA (RhoA): micromolar; inhibition at 30 µM (RhoA-GTP [1]): ~80%; IC50 (RhoA-LARG interaction; inhibitors alone or combined together, read-out: IC50 for inhibition of RhoA binding to LARG): ~10 µM; inhibition at 10 µM (RhoA-GTP [2]): ~50%
